Legend:
[1] = tested on: platelet: HL-60 cell adhesion; experiment: HL-60 Platelet Cell Adhesion Assay; format: cell-based; conditions: 0.5 h; thrombin-activated human platelets: HL-60 5:1, 30 minutes at room temperature; read-out: P-selectin HL-60 Platelets IC50
Experimental: HL-60 cells, obtained from American Type Culture Collection, were cultured in RPMI 1640 medium (GIBCO) supplemented with 20% fetal calf serum (Sigma) and 50 μg/ml gentamicin (GIBCO). Cells in log phase growth were harvested, washed and resuspended in Tyrodes buffer containing 5 mM HEPES and 0.2% bovine serum albumin and were fixed with 1% buffered formalin.
Blood from normal human donors was anticoagulated with citrate, layered over 1-Step Platelets (Accurate Chemical Co.) and centrifuged at 350 g for 20 minutes at room temperature. The platelet band was collected, diluted in 2 volumes of Tyrode's Buffer with 5 mM HEPES, 10 mM EDTA, and 0.2% BSA (pH 7.4) (THEB) and centrifuged at 600 g for 10 minutes. The platelet pellet was resuspended in THEB and incubated at room temperature for 1 hour. Calcein-acetoxy methylester (Calcein-Am, Molecular Probes) was added to the platelets at a final concentration of 10 μM and incubated for 10 minutes at 37° C. to label the platelets. Without washing, the platelets were counted on a Coulter counter model ZM, and the concentration was adjusted to 1×10^7 /ml. The platelets were activated with 2 U/ml of human thrombin for 10 minutes in Tyrode's containing 2 mM CaCl2, 5 mM HEPES, and 0.2% BSA (pH 7.4) (THB) at 37° C. and immediately fixed with 1% buffered formalin for 1 to 2 hours at room temperature. A small aliquot of labeled platelets was removed before activation and designated as non-activated.
Both platelets and HL-60 were washed in a ≥25 fold excess volume of Hanks Balanced Salt Solution (HBSS), resuspended in THB and counted. Cell concentrations were adjusted to 2×10^7 /ml for platelets and 4×10^6 /ml for HL-60, this ratio determined to be optimum for platelet: HL-60 cell adhesion. Compounds were incubated with 50 μl of platelets for 30 minutes at room temperature before addition of 50 μl of HL-60. This ratio of 5:1 platelets to HL-60 was incubated for 30 minutes at room temperature before addition of 0.2 ml of THB to increase the volume so the samples could be analyzed on a FACScan cytometer (Becton Dickinson). Non-activated platelets, and activated platelets with 10 mM EDTA were included as controls. Data were collected within a region set for the forward scatter channel corresponding to HL-60 size events.
The percent HL-60 cells which contained bound platelets was determined for each test condition. The inhibition of binding was determined by comparison to standards which were treated with vehicle alone (representing 0% inhibition) and standards whose specific binding had been blocked by the use of EDTA (representing 100% inhibition), by the following formula: [formula] where x=HL-60 cells containing bound platelets in the presence of the compound;
b=HL-60 cells containing bound platelets in the presence of EDTA;
a=HL-60 cells containing bound platelets in the presence of compound vehicle;
z=% inhibition of platelet: HL-60 cell adhesion

[2] = tested on: rats; experiment: Reverse Passive Arthus Reaction in Rats (RPA); format: in vivo, male Sprague Dawley rats; parameters: key to RPA VP % Inhib. (vascular permeability): NS: no significant inhibition at 3 mg; conditions: single dose of 3 mg IV, rat, 4 hours after BSA
Description: The reverse passive Arthus reaction in rats is a modification of the method by Mulligan et al., as described in J. Clin. Invest, (1991) 88: 1396-1406. This is an experimental model in which the interaction of antigen-antibodycomplexes and complement leads to a severe vasculitis that is associated with edema, induration, erythema and hemorrhage. The interaction between the antigen-antibody complexes and complement leads to a localized influx of neutrophils. These neutrophils release a variety of mediators that are associated with tissue damage and vascular permeability. The localized inflammatory reaction is measured using different techniques i.e., vascular permeability and neutrophil influx which is evaluated both biochemically and microscopically.
Male Sprague Dawley specific pathogen-free rats with jugular vein cannulae (280-320 g, Hill Top Labs, Pennsylvania) are used in these studies. Animals are acclimated for at least 1 day and individually housed in stainless steel cages. The dorsal region of the rats is closely clipped 2 days prior to the experiments and divided into 4 sites on each side of the midline. Prior to all injections the rats are sedated with 0.4 ml per 300 gm rat of ketamine/rompun [1000 mg (10 ml) of ketamine HCl is mixed with 40 mg (2.0 ml) Rompun] administered IP and or inhalation anesthesia with metafane (methoxyflurane).
Bovin Serum Albumin (BSA) and rabbit polyclonal IgG rich in anti-BSA are purchased from Sigma Chemical Co. (St. Louis, Mo.). Radiolabelled ^125 I-BSA (spAct 1-5 μCi/μg) is purchased from Dupont NEN (Boston, Mass.).
Each rat is administered intradermal (ID) injection of (0.4 mg, 0.6 mg and 0.8 mg) anti-BSA in a volume of 100 μl per injection in normal saline. The ID injections are randomized near the mid dorsal region on both sides of the back bone. Immediately after the ID injections of the anti-BSA, the rats are administered intravenous (IV) injections of BSA (10 mg in 1.0 ml) in normal saline containing ^125 I labeled BSA (1 μCi/ml BSA or 5.0 μCi/kg body/wt) for quantification of dermal valscular injury. Anti-inflammatory agents such as inhibitors of adhesion molecules of the present invention are administered IV at a single dose of 3 mg immediately after BSA. Four (4) hours after the IV injection of BSA, the rats are anesthetized with metafane and 2 to 3 ml of blood is withdrawn via the cannula into an anticoagulant containing (EDTA or Heparin) tube and plasma separated and saved for neutrophil and albumin quantitation. The rats are killed and the skin surrounding the injection site (15 mm diameter) is punched out and weighed. The skin sample and a fixed volume of plasma (0.1 to 1.0 ml) is analyzed in a gamma-counter for ^125 I content. Skin samples from the contralateral side are processed and analyzed for myeloperoxidase activity (MPO) as a measure of neutrophil accumulation. As needed, samples are also processed for histological evaluation of the reacted sites.
The calculation of the plasma protein exudation into skin is made by determining the radioactivity in the tissue and relating this to the level of radioactive albumin in the blood at the time of sacrifice. […] [formula]
Percent inhibition of the test compound at 3 mg was determined as follows: [formula] Myeloperoxidase (MPO)
MPO is located in the azurophil granules of polymorphonuclear leukocytes (PMN). Because of its abundance in these cells (5% dry weight), this enzyme is used as a marker for tissue neutrophil content. For tissue MPO content, the method of Bradley, et al., was used as described in J. Invest. Dermatol. (1982) 78: 206-209. Biopsies from each treatment group were placed in plastic tubes (15×100 mm) containing 10 ml of 0.5% hexadecyltrimethylammonium bromide (HTAB) in 0.05M potassium phosphate buffer pH 6.0. The tissue was then homogenized with a Brinkmann Polytron homogenizer (10s). […]

[3] = molecular target: T1, P-selectin (Homo sapiens, UniProt P16109); conditions: literature; cited from earlier work
T1 sequence (P16109 42-830): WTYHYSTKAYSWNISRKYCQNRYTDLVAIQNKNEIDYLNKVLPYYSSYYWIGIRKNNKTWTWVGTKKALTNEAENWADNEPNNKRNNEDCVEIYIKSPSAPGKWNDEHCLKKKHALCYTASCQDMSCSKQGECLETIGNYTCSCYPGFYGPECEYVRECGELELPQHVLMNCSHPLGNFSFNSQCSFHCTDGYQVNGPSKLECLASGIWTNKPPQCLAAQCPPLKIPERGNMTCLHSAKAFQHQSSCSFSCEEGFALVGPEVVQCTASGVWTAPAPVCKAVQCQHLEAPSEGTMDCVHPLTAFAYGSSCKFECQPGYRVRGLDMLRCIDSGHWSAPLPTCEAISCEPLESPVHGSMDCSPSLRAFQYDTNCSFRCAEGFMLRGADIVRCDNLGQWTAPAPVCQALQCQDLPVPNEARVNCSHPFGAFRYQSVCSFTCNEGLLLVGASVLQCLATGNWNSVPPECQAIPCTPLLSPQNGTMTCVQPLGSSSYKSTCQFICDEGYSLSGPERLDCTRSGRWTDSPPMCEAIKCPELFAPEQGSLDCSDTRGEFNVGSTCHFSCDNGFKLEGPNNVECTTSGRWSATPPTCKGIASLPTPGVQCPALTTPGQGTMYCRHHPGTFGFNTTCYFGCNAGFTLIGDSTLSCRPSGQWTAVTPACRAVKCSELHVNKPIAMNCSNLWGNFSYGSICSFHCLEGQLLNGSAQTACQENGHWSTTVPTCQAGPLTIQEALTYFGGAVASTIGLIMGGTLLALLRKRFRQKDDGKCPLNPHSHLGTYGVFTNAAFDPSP

Compound | IC50 [1] | RPA MPO % Inhib. (myeloperoxidase) [2] | RPA VP % Inhib. (vascular permeability) [2] | RPA VP % Inhib. (vascular permeability) ([2]; printed as symbol) | inhibition of P-selectin mediated adhesion [3]
CCCCCCCCCCCCC/C=C/[C@@H](OC(=O)c1ccccc1)[C@H](CO[C@@H]1O[C@H](CO)[C@H](O)[C@H](OC(=O)c2ccccc2)[C@H]1OCCCCC(C(=O)O)C(=O)O)NC(=O)CCCCCCCCCCCCCCC [Example 18, (2S,3R,4E)-3-Benzoyloxy-2-hexadecanoylamino-1-[2-O-(5,5-di-carboxypent-1-yl)-3-O-benzoyl-β-D-galactopyranosyloxy]-4-octadecene] | 8.8 µM | 61.6% | 4.3% |  | 
CCCCCCCCCCCCC/C=C/[C@@H](OC(=O)c1ccccc1)[C@H](CO[C@H]1O[C@H](COCCC(C(=O)O)C(=O)O)[C@H](O)[C@H](O)[C@H]1O)NC(=O)CCCCCCCCCCCCCCC [Example 6, (2S,3R,4E)-3-Benzoyloxy-2-hexadecanoylamino-1-[6-O-(3,3-di-carboxyprop-1-yl)-α-D-galactopyranosyloxy]-4-octadecene] | 13 µM | 25% |  | NS | 
dextran sulfate |  |  |  |  | inhibit P-selectin mediated adhesion
heparin |  |  |  |  | inhibit P-selectin mediated adhesion
fucoidan |  |  |  |  | inhibit P-selectin mediated adhesion

Now from value to compound, other results behind:

IC50 [1] | Compound | RPA MPO % Inhib. (myeloperoxidase) [2] | RPA VP % Inhib. (vascular permeability) [2] | RPA VP % Inhib. (vascular permeability) ([2]; printed as symbol) | inhibition of P-selectin mediated adhesion [3]
45 µM | CCCCCCCCCCCCC/C=C/[C@@H](OC(=O)c1ccccc1)[C@H](CO[C@@H]1O[C@H](CO)[C@H](O)[C@H](OCCCCC(C(=O)O)C(=O)O)[C@H]1O)NC(=O)CCCCCCCCCCCCCCC [Example 14, (2S,3R,4E)-3-Benzoyloxy-2-hexadecanoylamino-1-[3-O-(5,5-di-carboxypent-1-yl)-β-D-galactopyranosyloxy]-4-octadecene] | 30.9% | 15.5% |  | 
22.9 µM | CCCCCCCCCCCCC/C=C/[C@@H](OC(=O)c1ccccc1)[C@H](CO[C@H]1O[C@H](CO)[C@H](O)[C@H](OCCCCC(C(=O)O)C(=O)O)[C@H]1O)NC(=O)CCCCCCCCCCCCCCC [Example 12, (2S,3R,4E)-3-Benzoyloxy-2-hexadecanoylamino-1-[3-O-(5,5-di-carboxypent-1-yl)-α-D-galactopyranosyloxy]-4-octadecene] | 82% | 33% |  | 
51 µM | CCCCCCCCCCCCC/C=C/[C@@H](OC(=O)c1ccccc1)[C@H](CO[C@H]1O[C@H](CO)[C@H](OCCC(C(=O)O)C(=O)O)[C@H](O)[C@H]1O)NC(=O)CCCCCCCCCCCCCCC [Example 24, (2S,3R,4E)-3-Benzoyloxy-2-hexadecanoylamino-1-[4-O-(3,3-di-carboxyprop-1-yl)-α-D-galactopyranosyloxy]-4-octadecene] | 35% | 33.5% |  | 
